Test results: the NIST ThermoML archive (doi:10.1021/je700260f)

Settings: Liquid, Vibrating tube method

FC(C(F)(F)F)C(F)(F)F [1,1,1,2,3,3,3-heptafluoropropane]
Settings	mass density [kg/m3]
333.16 K, 17241 kPa	1375.9
333.16 K, 17263 kPa	1376.1
333.16 K, 17300 kPa	1376.3
333.16 K, 17322 kPa	1376.4
333.16 K, 17351 kPa	1376.5
333.16 K, 17370 kPa	1376.8
333.16 K, 17482 kPa	1377.4
333.16 K, 17509 kPa	1377.4
333.16 K, 17532 kPa	1377.7
333.16 K, 17563 kPa	1377.9
333.16 K, 17589 kPa	1378
333.16 K, 17619 kPa	1378.1
333.16 K, 17654 kPa	1378.4
333.16 K, 17680 kPa	1378.6
333.16 K, 17707 kPa	1378.7
333.16 K, 17741 kPa	1378.9
333.16 K, 17766 kPa	1379.1
333.16 K, 17788 kPa	1379.2
333.16 K, 17814 kPa	1379.3
333.16 K, 17848 kPa	1379.5
333.16 K, 17875 kPa	1379.6
333.16 K, 18144 kPa	1381.2
333.16 K, 18172 kPa	1381.4
333.16 K, 18199 kPa	1381.6
333.16 K, 18229 kPa	1381.8
333.16 K, 18263 kPa	1382
333.16 K, 18289 kPa	1382
333.16 K, 18321 kPa	1382.2
333.16 K, 18352 kPa	1382.4
333.16 K, 18378 kPa	1382.7
333.16 K, 18409 kPa	1382.9
333.16 K, 18440 kPa	1382.9
333.16 K, 18582 kPa	1383.6
333.16 K, 18605 kPa	1383.8
333.16 K, 18633 kPa	1384.2
333.16 K, 18653 kPa	1384.2
333.16 K, 18684 kPa	1384.3
333.16 K, 18715 kPa	1384.6
333.16 K, 18741 kPa	1384.6
333.16 K, 18777 kPa	1384.9
333.16 K, 18809 kPa	1385.1
333.16 K, 18836 kPa	1385.3
333.16 K, 18859 kPa	1385.4
333.16 K, 18889 kPa	1385.6
333.16 K, 18924 kPa	1385.8
333.16 K, 18951 kPa	1385.8
333.16 K, 18974 kPa	1385.9
333.16 K, 19009 kPa	1386.3
333.16 K, 19047 kPa	1386.4
333.16 K, 19071 kPa	1386.6
333.16 K, 19105 kPa	1386.7
333.16 K, 19128 kPa	1386.7
333.16 K, 19166 kPa	1387
333.16 K, 19192 kPa	1387.1
333.16 K, 19220 kPa	1387.4
333.16 K, 19248 kPa	1387.5
333.16 K, 19286 kPa	1387.9
333.16 K, 19310 kPa	1387.8
333.16 K, 19346 kPa	1388
333.16 K, 19381 kPa	1388.3
333.16 K, 19409 kPa	1388.4
333.16 K, 19445 kPa	1388.6
333.16 K, 19468 kPa	1388.8
333.16 K, 19716 kPa	1390.1
333.16 K, 19745 kPa	1390.3
333.16 K, 19776 kPa	1390.5
333.16 K, 19803 kPa	1390.5
333.16 K, 19831 kPa	1390.7
333.16 K, 19870 kPa	1391
333.16 K, 19894 kPa	1391
333.16 K, 19927 kPa	1391.2
333.16 K, 19959 kPa	1391.4
333.16 K, 19987 kPa	1391.6
333.16 K, 20022 kPa	1391.8
333.16 K, 20050 kPa	1391.9
333.16 K, 20077 kPa	1392
333.16 K, 20115 kPa	1392.3
333.16 K, 20146 kPa	1392.4
333.16 K, 20174 kPa	1392.5
333.16 K, 20207 kPa	1392.8
333.16 K, 20238 kPa	1392.9
333.16 K, 20266 kPa	1393.1
333.16 K, 20294 kPa	1393.3
333.16 K, 20328 kPa	1393.5
333.16 K, 20352 kPa	1393.5
333.16 K, 20393 kPa	1393.9
333.16 K, 20421 kPa	1393.8
333.16 K, 20453 kPa	1394.1
333.16 K, 20487 kPa	1394.3
333.16 K, 20512 kPa	1394.4
333.16 K, 20545 kPa	1394.6
333.16 K, 20579 kPa	1394.8
333.16 K, 20612 kPa	1395
333.16 K, 20640 kPa	1395.1
333.16 K, 20661 kPa	1395.4
333.16 K, 20682 kPa	1395.2
333.16 K, 20713 kPa	1395.4
333.16 K, 21425 kPa	1399.3
333.16 K, 21458 kPa	1399.4
333.16 K, 21479 kPa	1399.5
333.16 K, 21507 kPa	1399.6
333.16 K, 21537 kPa	1399.9
333.16 K, 21562 kPa	1399.9
333.16 K, 21595 kPa	1400.1
333.16 K, 21615 kPa	1400.2
333.16 K, 21797 kPa	1401.1
333.16 K, 21860 kPa	1401.5
333.16 K, 21957 kPa	1401.9
333.16 K, 21990 kPa	1402
333.16 K, 22016 kPa	1402.3
333.16 K, 22042 kPa	1402.3
333.16 K, 22082 kPa	1402.5
333.16 K, 22116 kPa	1402.8
333.16 K, 22154 kPa	1402.9
333.16 K, 22183 kPa	1403.1
333.16 K, 22220 kPa	1403.2
333.16 K, 22249 kPa	1403.6
333.16 K, 22279 kPa	1403.5
333.16 K, 22309 kPa	1403.8
333.16 K, 22335 kPa	1403.8
333.16 K, 22370 kPa	1404.1
333.16 K, 22404 kPa	1404.2
333.16 K, 22435 kPa	1404.3
333.16 K, 22473 kPa	1404.6
333.16 K, 22511 kPa	1404.8
333.16 K, 22537 kPa	1404.9
333.16 K, 22575 kPa	1405.2
333.16 K, 22605 kPa	1405.3
333.16 K, 22642 kPa	1405.4
333.16 K, 22672 kPa	1405.6
333.16 K, 22698 kPa	1405.8
333.16 K, 22736 kPa	1405.9
333.16 K, 22762 kPa	1406.1
333.16 K, 22980 kPa	1407.1
333.16 K, 23011 kPa	1407.2
333.16 K, 23037 kPa	1407.4
333.16 K, 23068 kPa	1407.5
333.16 K, 23104 kPa	1407.9
333.16 K, 23133 kPa	1407.8
333.16 K, 23162 kPa	1408
333.16 K, 23193 kPa	1408.1
333.16 K, 23228 kPa	1408.3
333.16 K, 23254 kPa	1408.5
333.16 K, 23297 kPa	1408.8
333.16 K, 23324 kPa	1408.8
333.16 K, 23358 kPa	1409
333.16 K, 23425 kPa	1409.3
333.16 K, 23453 kPa	1409.5
333.16 K, 23480 kPa	1409.5
333.16 K, 23515 kPa	1409.6
333.16 K, 23559 kPa	1410
333.16 K, 23594 kPa	1410.2
333.16 K, 23633 kPa	1410.3
333.16 K, 23662 kPa	1410.4
333.16 K, 23693 kPa	1410.4
333.16 K, 23728 kPa	1410.8
333.16 K, 23763 kPa	1411
333.16 K, 23795 kPa	1411
333.16 K, 23823 kPa	1411.3
333.16 K, 23890 kPa	1411.6
333.16 K, 23921 kPa	1411.7
333.16 K, 23957 kPa	1411.9
333.16 K, 23993 kPa	1412
333.16 K, 24020 kPa	1412.2
333.16 K, 24055 kPa	1412.4
333.16 K, 24089 kPa	1412.4
333.16 K, 24110 kPa	1412.7
333.16 K, 24140 kPa	1412.7
333.16 K, 24184 kPa	1413
333.16 K, 24206 kPa	1413.1
333.16 K, 24242 kPa	1413.2
333.16 K, 24269 kPa	1413.3
333.16 K, 24304 kPa	1413.6
333.16 K, 24333 kPa	1413.8
333.16 K, 24369 kPa	1413.7
333.16 K, 24396 kPa	1414
333.16 K, 24436 kPa	1414.2
333.16 K, 24468 kPa	1414.3
333.16 K, 24500 kPa	1414.4
333.16 K, 24531 kPa	1414.6
333.16 K, 24558 kPa	1414.7
333.16 K, 24594 kPa	1414.9
333.16 K, 24621 kPa	1415.1
333.16 K, 24657 kPa	1415.2
333.16 K, 24688 kPa	1415.3
333.16 K, 24720 kPa	1415.5
333.16 K, 24751 kPa	1415.7
333.16 K, 24782 kPa	1415.8
333.16 K, 24810 kPa	1415.9
333.16 K, 24838 kPa	1416
333.16 K, 24869 kPa	1416
333.16 K, 24910 kPa	1416.4
333.16 K, 24944 kPa	1416.5
333.16 K, 24980 kPa	1416.7
333.16 K, 25007 kPa	1416.8
333.16 K, 25039 kPa	1417.1
333.16 K, 25088 kPa	1417.1
333.16 K, 25111 kPa	1417.2
333.17 K, 17403 kPa	1376.8
333.17 K, 17429 kPa	1376.9
333.17 K, 17457 kPa	1377.4
333.17 K, 18467 kPa	1383.1
333.17 K, 18490 kPa	1383
333.17 K, 18517 kPa	1383.4
333.17 K, 18552 kPa	1383.6
333.17 K, 23382 kPa	1409
